# Test system: human PBMCs
# Assay: Human PBMC cytokine response assay (IFN-γ and IFN-α in cell-free medium by ELISA), with or without cPLGA;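 for IFN-α (pg/ml) mean: 20 µg/mL compound for 24 hours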;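 for IFN-γ (pg/ml) mean: 20 µg/mL compound for 24 hours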
# Type: cell-based
# Conditions: for IFN-a / IFN-g / IFN-a mean / IFN-g mean: Table 25; for IFN-a mean / IFN-g mean: mean of donors 28250-28253; for IFN-α (pg/ml) mean / IFN-γ (pg/ml) mean: mean of donors 110, 112, 119, 120
# [1] = donor 28250, polynucleotides/spacers at amounts equivalent to the CIC, spacers alone 9 uM
# [2] = Table 24, mean of donors 28234-28237
substance,measurement,setting,value
"5′-TCGAACGTTCGA-3′ (SEQ ID NO: 155) (listed as DNA, chemistry not fully specified) [Compound P-17, reference compound]",IFN-α,"Example 58, 0.8 ug/ml, donor 1",52 pg/mL
same,IFN-α,"Example 58, 0.8 ug/ml, donor 2",105 pg/mL
same,IFN-α,"Example 58, 0.8 ug/ml, donor 3",52 pg/mL
same,IFN-α,"Example 58, 0.8 ug/ml, donor 4",286 pg/mL
same,IFN-α mean,"Example 58, 0.8 ug/ml, mean of four individuals",124 pg/mL
same,IFN-α,"Example 58, 4 ug/ml, donor 1",9154 pg/mL
same,IFN-α,"Example 58, 4 ug/ml, donor 2",10388 pg/mL
same,IFN-α,"Example 58, 4 ug/ml, donor 3",531 pg/mL
same,IFN-α,"Example 58, 4 ug/ml, donor 4",837 pg/mL
same,IFN-α mean,"Example 58, 4 ug/ml, mean of four individuals",5228 pg/mL
same,IFN-α,"Example 58, 20 ug/ml, donor 1",1022 pg/mL
same,IFN-α,"Example 58, 20 ug/ml, donor 2",1792 pg/mL
same,IFN-α,"Example 58, 20 ug/ml, donor 3",52 pg/mL
same,IFN-α,"Example 58, 20 ug/ml, donor 4",52 pg/mL
same,IFN-α mean,"Example 58, 20 ug/ml, mean of four individuals",729 pg/mL
"5′-TCGACGT-3′ [Compound P-14, reference compound]",IFN-a,donor 28250,16 pg/mL
same,IFN-g,[1],10 pg/mL
same,IFN-a,donor 28251,16 pg/mL
same,IFN-g,donor 28251,34 pg/mL
same,IFN-a,donor 28252,16 pg/mL
same,IFN-g,donor 28252,11 pg/mL
same,IFN-a,donor 28253,16 pg/mL
same,IFN-g,donor 28253,10 pg/mL
same,IFN-a mean,,16 pg/mL
same,IFN-g mean,,16 pg/mL
5′-TCGACGT-3′-HEG-5′-TCGACGT-3′-HEG-5′-TCGACGT-3′ [Compound C-51],IFN-α induced relative to C-90 (C3 CIC),HEG CIC vs C3 CIC,8 fold
same,IFN-α,"Table 10, donor 28042",112 pg/mL
same,IFN-γ,"Table 10, donor 28042",795 pg/mL
same,IFN-α,"Table 10, donor 28043",245 pg/mL
same,IFN-γ,"Table 10, donor 28043",1349 pg/mL
same,IFN-α,"Table 10, donor 28044",240 pg/mL
same,IFN-γ,"Table 10, donor 28044",1114 pg/mL
same,IFN-α,"Table 10, donor 28045",36 pg/mL
same,IFN-γ,"Table 10, donor 28045",411 pg/mL
same,IFN-α mean,"Table 10, mean of donors",158 pg/mL
same,IFN-γ mean,"Table 10, mean of donors",917 pg/mL
same,IFN-α,"Table 24, donor 28234",16 pg/mL
same,IFN-γ,"Table 24, donor 28234",17 pg/mL
same,IFN-α,"Table 24, donor 28235",77 pg/mL
same,IFN-γ,"Table 24, donor 28235",123 pg/mL
same,IFN-α,"Table 24, donor 28236",352 pg/mL
same,IFN-γ,"Table 24, donor 28236",193 pg/mL
same,IFN-α,"Table 24, donor 28237",3798 pg/mL
same,IFN-γ,"Table 24, donor 28237",1580 pg/mL
same,IFN-α mean,[2],1061 pg/mL
same,IFN-γ mean,[2],478 pg/mL
same,IFN-a,donor 28250,181 pg/mL
same,IFN-g,[1],135 pg/mL
same,IFN-a,donor 28251,246 pg/mL
same,IFN-g,donor 28251,45 pg/mL
same,IFN-a,donor 28252,95 pg/mL
same,IFN-g,donor 28252,164 pg/mL
same,IFN-a,donor 28253,1226 pg/mL
same,IFN-g,donor 28253,167 pg/mL
same,IFN-a mean,,437 pg/mL
same,IFN-g mean,,128 pg/mL
same,IFN-α,"donor 110, Table 14",1408 pg/mL
same,IFN-γ,"donor 110, Table 14",1528 pg/mL
same,IFN-α,"donor 112, Table 14",72 pg/mL
same,IFN-γ,"donor 112, Table 14",240 pg/mL
same,IFN-α,"donor 119, Table 14",2200 pg/mL
same,IFN-γ,"donor 119, Table 14",52 pg/mL
same,IFN-α,"donor 120, Table 14",622 pg/mL
same,IFN-γ,"donor 120, Table 14",40 pg/mL
same,IFN-α (pg/ml) mean,Table 14,1076 pg/mL
same,IFN-γ (pg/ml) mean,Table 14,465 pg/mL
same,"IFN-α induction, in words",used alone,generated more IFN-α than CICs containing a 5′-TCGT-3′
same,"IFN-γ induction, in words",used alone,similar
same,"immunomodulatory activity (IFN-γ / IFN-α secretion), in words",used alone (no cPLGA),more active than other CG-containing CICs
5′-TCGACGT-3′-HEG-5′-TCGACGT-3′-HEG-5′-TCGACGT-3′-HEG-5′-TCGACGT-3′ [Compound C-71],IFN-α,"Table 24, donor 28234",17 pg/mL
same,IFN-γ,"Table 24, donor 28234",30 pg/mL
same,IFN-α,"Table 24, donor 28235",30 pg/mL
same,IFN-γ,"Table 24, donor 28235",168 pg/mL
same,IFN-α,"Table 24, donor 28236",538 pg/mL
same,IFN-γ,"Table 24, donor 28236",448 pg/mL
same,IFN-α,"Table 24, donor 28237",1665 pg/mL
same,IFN-γ,"Table 24, donor 28237",1663 pg/mL
same,IFN-α mean,[2],563 pg/mL
same,IFN-γ mean,[2],577 pg/mL
5′-TCGACTC-3′-HEG-5′-TCGAGCG-3′-HEG-5′-TTCTCTT-3′ [Compound C-63],IFN-α,"donor 110, Table 14",294 pg/mL
same,IFN-γ,"donor 110, Table 14",1536 pg/mL
same,IFN-α,"donor 112, Table 14",38 pg/mL
same,IFN-γ,"donor 112, Table 14",376 pg/mL
same,IFN-α,"donor 119, Table 14",464 pg/mL
same,IFN-γ,"donor 119, Table 14",80 pg/mL
same,IFN-α,"donor 120, Table 14",228 pg/mL
same,IFN-γ,"donor 120, Table 14",60 pg/mL
same,IFN-α (pg/ml) mean,Table 14,256 pg/mL
same,IFN-γ (pg/ml) mean,Table 14,513 pg/mL
"5′-TCGAGAT-3′ [Compound P-13, reference compound]",IFN-a,donor 28250,16 pg/mL
same,IFN-g,[1],18 pg/mL
same,IFN-a,donor 28251,16 pg/mL
same,IFN-g,donor 28251,13 pg/mL
same,IFN-a,donor 28252,16 pg/mL
same,IFN-g,donor 28252,22 pg/mL
same,IFN-a,donor 28253,16 pg/mL
same,IFN-g,donor 28253,1 pg/mL
same,IFN-a mean,,16 pg/mL
same,IFN-g mean,,14 pg/mL

# — patent US9028845B2, “Chimeric immunomodulatory compounds and methods of using the same-IV” (Dynavax Technologies Corporation, priority 2001, dated 2015)
